Test results taken from patent US20060280820A1, “Use of an extract of Aloysia/Verbena/Lippia triphylla/citriodora for the treatment of chronic and/or inflammatory diseases” (priority 2003, published 2006).

Assay: Degradation of glycosaminoglycanes by reactive oxygen species (FIG. 2)
Format: biochemical
Conditions: free ferrous ions and hydrogen peroxide; pH value 7.2, 37 degrees Celsius

Compound: O=C1O[C@H]([C@@H](O)CO)C(O)=C1O [vitamin C]
- degradation of glycosaminoglycanes by reactive oxygen species: enhances the degradation of glycosaminoglycanes
